Our source for the IC50 values is patent publication US7273863B1, “Benzophenones as inhibitors of reverse transcriptase” (SmithKline Beecham Corporation, priority 1999, dated 2007).

Structures are written as SMILES. Bounds are passed on as bounds.

Experiment [1] relates to WTRVA. The experiment is described as follows: HeLa cell assay (HIV-LTR β-galactosidase reporter). The format is cell-based, HIV-1. The settings on record: Human immunodeficiency virus 1, Virus Type WTRVA, read-out: IC50 (nM) Range. Here is the method: (§1) The HeLa cell assay was performed according to a modification of Kimpton J. and Emerman M., Detection of replication-competent and pseudotyped human immunodeficiency virus with a sensitive cell line on the basis of activation of an integrated β-galactosidase gene, J. Virol. 66:2232-2239 (1992), in which HIV-1 infection is detected by the activation of an HIV-LTR driven β-galactosidase reporter that is integrated into the genome of a CD4^+ HeLa cell line. Quantitation of β-galactosidase is achieved by measuring the activation of a chemiluminescent substrate (Tropix). The concentration of each compound required to inhibit 50% (IC50) of the HIV-1 induced β-galactosidase signal, relative to untreated controls, was determined for each isogenic, recombinant virus.
(§2) HeLa-CD4-LTR-β-gal cells were obtained from the NIH AIDS Research and Reference Reagent Program. Cells were propagated in DMEM containing 10% fetal bovine serum, 0.2 mg/ml geneticin and 0.1 mg/ml hygromycin B. Cells were routinely split by trypsinization when confluency reached 80% (approximately every 2 to 3 days).
(§3) DNA encoding the HIV-1 reverse transcriptase was subcloned from a M13 phage into a general shuttle vector, pBCSK+, as a ˜1.65 kbp EcoRI/HindIII ended DNA fragment. The HIV DNA insert of the resulting plasmid, pRT2, was completely sequenced on both strands prior to use in site directed mutagenesis experiments. Specific amino acid replacements were made using Stratagene Quick Change reagents and mutagenic oligonucleotides from Oligos. Following mutagenesis, the entire mutant RT coding sequence was verified by sequencing both DNA strands.
(§4) Mutant HIV-1 strains were isolated by a modified Recombinant Virus Assay (Kellam P. and Larder B., Recombinant virus assay: a rapid, phenotypic assay for assessment of drug susceptibility of human immunodeficiency virus type 1 isolates, Antimicrobial Agents and Chemotherapy, 38:23-30, 1994). 1×10^7 Jurkat T-cells (maintained in RPMI containing 10% fetal bovine serum, split 1:5 every 5 to 6 days) were co-transfected with EcoRI/HindIII digested mutant RT plasmid and Bst EII-digested HIV-1HXB2ΔRT DNA in the presence of DMRIE-C transfection reagent (Gibco) according to supplier's recommended protocol. Each mutant RT coding sequence was crossed into the RT-deleted HIV-1 viral DNA backbone by in vivo homologous recombination. Transfected cell cultures were expanded and monitored until syncitia formation and CPE were extensive. Virus was harvested by clear spin of the culture supernatants and frozen at −80 C as primary stock. Recombinant progeny virus was sequenced in the RT region to confirm the mutant genotype. Virus stocks were further expanded by infection of Jurkat cells, harvested and stored as frozen aliquots. Stocks were titered in HeLa MAGI cells for assay.
(§5) The HIV-1HXB2 mutants were titered in the HeLa MAGI assay system to determine the relative light units (RLU) per ml, a measure of infectivity relevant for this assay system. Virus stocks were diluted in a 2-fold series into DMEM containing 10% fetal bovine serum plus 20 ug/ml DEAE-dextran and assayed as described in the Experimental Protocol section, below.
(§6) 96-well microtiter plate(s) (Costar #3598) were seeded with 3×10^3 HeLa-CD4-LTR-β-gal in 100 μl DMEM containing 10% fetal bovine serum. Plates were placed in a 37° C., 5% CO2 humidified incubator overnight. The following day, mutant virus stocks were thawed in a room temperature water bath and diluted into DMEM containing 10% fetal bovine serum and 20 μg/ml DEAE-dextran to achieve an input of 1500 to 2000 RLU/ml. All media was removed with an 8 channel manifold aspirator and 35 μl (50 to 70 total RLUs) of diluted virus was added to each well for virus adsorption. Plates were placed in a 37° C., 5% CO2 humidified incubator for 1.5 to 2 hours.
(§7) Compound titration plates were prepared at 1.35× final concentration during the virus adsorption period. […]

Experiment [2] has as its system isogenic HIV-1 RT mutant virus V106I. Kind of experiment: HeLa cell assay (HIV-LTR β-galactosidase reporter). The format is cell-based. To be noted: Human immunodeficiency virus 1, HeLa, read-out: IC50 (nM) Range. Here is the method:
as §1, §2, §3, §4, §5, §6, §7

Experiment [3] deals with isogenic HIV-1 RT mutant virus V106I/Y181C. Kind of experiment: HeLa cell assay (HIV-LTR β-galactosidase reporter). The format is cell-based. To be noted: Human immunodeficiency virus 1, HeLa, read-out: IC50 (nM) Range. Here is the method: as §1, §2, §3, §4, §5, §6, §7
The subject of experiment [4] is isogenic HIV-1 RT mutant virus V108I. The experiment is described as follows: HeLa cell assay (HIV-LTR β-galactosidase reporter). To be noted: Human immunodeficiency virus 1, HeLa, read-out: IC50 (nM) Range. Format: cell-based. The method, then: as §1, §2, §3, §4, §5, §6, §7
Experiment [5] concerns isogenic HIV-1 RT mutant virus V106A/Y181C. The experiment is described as follows: HeLa cell assay (HIV-LTR β-galactosidase reporter). The format is cell-based. The settings on record: Human immunodeficiency virus 1, HeLa, read-out: IC50 (nM) Range. Here is the method:
as §1, §2, §3, §4, §5, §6, §7

Experiment [6] deals with isogenic HIV-1 RT mutant virus K103N/P225H. The experiment is described as follows: HeLa cell assay (HIV-LTR β-galactosidase reporter). Format: cell-based. To be noted: Human immunodeficiency virus 1, HeLa, read-out: IC50 (nM) Range. Here is the method:
as §1, §2, §3, §4, §5, §6, §7

Experiment [7] relates to isogenic HIV-1 RT mutant virus K103N/V108I. The experiment is described as follows: HeLa cell assay (HIV-LTR β-galactosidase reporter). To be noted: Human immunodeficiency virus 1, HeLa, read-out: IC50 (nM) Range. The format is cell-based. Here is the method: as §1, §2, §3, §4, §5, §6, §7
The subject of experiment [8] is isogenic HIV-1 RT mutant virus P236L. Kind of experiment: HeLa cell assay (HIV-LTR β-galactosidase reporter). Format: cell-based. The settings on record: Human immunodeficiency virus 1, HeLa, read-out: IC50 (nM) Range. Here is the method: as §1, §2, §3, §4, §5, §6, §7
Experiment [9] has as its system isogenic HIV-1 RT mutant virus P225H. Kind of experiment: HeLa cell assay (HIV-LTR β-galactosidase reporter). Format: cell-based. The settings on record: Human immunodeficiency virus 1, HeLa, read-out: IC50 (nM) Range. The method, then: as §1, §2, §3, §4, §5, §6, §7
For experiment [10], the system named is isogenic HIV-1 RT mutant virus K103N/G190A. The experiment is described as follows: HeLa cell assay (HIV-LTR β-galactosidase reporter). The format is cell-based. To be noted: Human immunodeficiency virus 1, HeLa, read-out: IC50 (nM) Range. Here is the method:
as §1, §2, §3, §4, §5, §6, §7

The test system of experiment [11] is isogenic HIV-1 RT mutant virus Y181C. The experiment is described as follows: HeLa cell assay (HIV-LTR β-galactosidase reporter). The format is cell-based. The settings on record: Human immunodeficiency virus 1, HeLa, read-out: IC50 (nM) Range. Here is the method: as §1, §2, §3, §4, §5, §6, §7
The subject of experiment [12] is isogenic HIV-1 RT mutant virus V108I/Y181C. The experiment is described as follows: HeLa cell assay (HIV-LTR β-galactosidase reporter). To be noted: Human immunodeficiency virus 1, HeLa, read-out: IC50 (nM) Range. The format is cell-based. The method, then:
as §1, §2, §3, §4, §5, §6, §7

Experiment [13] relates to isogenic HIV-1 RT mutant virus K103N/Y181C. Kind of experiment: HeLa cell assay (HIV-LTR β-galactosidase reporter). Format: cell-based. The settings on record: Human immunodeficiency virus 1, HeLa, read-out: IC50 (nM) Range. The method, then: as §1, §2, §3, §4, §5, §6, §7
Experiment [14] concerns isogenic HIV-1 RT mutant virus L100I. The experiment is described as follows: HeLa cell assay (HIV-LTR β-galactosidase reporter). The format is cell-based. The settings on record: Human immunodeficiency virus 1, HeLa, read-out: IC50 (nM) Range. The method, then: as §1, §2, §3, §4, §5, §6, §7
Experiment [15] has as its system isogenic HIV-1 RT mutant virus K103N. The experiment is described as follows: HeLa cell assay (HIV-LTR β-galactosidase reporter). Format: cell-based. To be noted: Human immunodeficiency virus 1, HeLa, read-out: IC50 (nM) Range. Here is the method: as §1, §2, §3, §4, §5, §6, §7
Experiment [16] relates to isogenic HIV-1 RT mutant virus G190A. Kind of experiment: HeLa cell assay (HIV-LTR β-galactosidase reporter). The format is cell-based. To be noted: Human immunodeficiency virus 1, HeLa, read-out: IC50 (nM) Range. Here is the method:
as §1, §2, §3, §4, §5, §6, §7

Experiment [17] relates to NEV-R. The experiment is described as follows: MT4 cell assay, antiviral HIV activity (propidium iodide). The settings on record: Human immunodeficiency virus 1, MT4, read-out: IC50 (nM) Range. The format is cell-based.

With `Cc1cc2cn[nH]c2cc1NC(=O)COc1ccc(Cl)cc1C(=O)c1cccc(C#N)c1` [Compound 453], the 50% inhibitory concentration (IC50) in experiment [1] is < 10 nM; in [2] it was < 10 nM; in experiment [3], 11 to 100 nM; in experiment [4] it was 101 to 1000 nM; in experiment [5], 11 to 100 nM; in experiment [6] it was < 10 nM. The IC50 in experiment [7] is < 10 nM; in experiment [8], 11 to 100 nM; in experiment [9], < 10 nM; in experiment [10], 11 to 100 nM; in experiment [11], < 10 nM; in experiment [12], < 10 nM. For the same compound, the IC50 in experiment [13], in [14], in experiment [15], in experiment [16] and in experiment [17] was < 10 nM in each case.
As to `Cc1cc(OCCCS(N)(=O)=O)ccc1NC(=O)COc1ccc(Cl)cc1C(=O)c1cc(F)cc(C(F)(F)F)c1` [Compound 257], the IC50 in [1] is < 10 nM; in [2] it was < 10 nM; in experiment [3], 11 to 100 nM; in experiment [4], < 10 nM; in experiment [5], 11 to 100 nM; in experiment [6], < 10 nM. Also, the IC50 in experiment [7] is < 10 nM; in experiment [8], < 10 nM; in [9], < 10 nM; in experiment [10], 11 to 100 nM; in experiment [11], < 10 nM; in experiment [12] it was < 10 nM. The 50% inhibitory concentration (IC50) in [13], in experiment [14], in [15], in experiment [16] and in [17] was < 10 nM throughout.
As for `Cc1cc(S(N)(=O)=O)ccc1NC(=O)COc1ccc(Cl)cc1C(=O)c1cc(F)cc(F)c1` [Compound 62], the concentration for half-maximal inhibition (IC50) in experiment [1] was < 10 nM; in [2], < 10 nM; in [3], 11 to 100 nM; in [4], < 10 nM; in [5] it was 11 to 100 nM; in experiment [6], < 10 nM. The concentration for half-maximal inhibition (IC50) was < 10 nM in experiment [7]; 11 to 100 nM in experiment [8]; < 10 nM in experiment [9]; 11 to 100 nM in [10]; < 10 nM in experiment [11]; < 10 nM in experiment [12]. The concentration for half-maximal inhibition (IC50) in experiment [13] is 11 to 100 nM; in [14], < 10 nM; in experiment [15] it was < 10 nM; in experiment [16], < 10 nM; in experiment [17] it was < 10 nM.
For the compound `Cc1cc(C)cc(C(=O)c2cc(Cl)ccc2OCC(=O)Nc2ccc(S(N)(=O)=O)cc2C)c1` [Compound 478], the IC50 in [1], in experiment [2], in experiment [3], in [4], in experiment [5] and in [6] was < 10 nM each time. The half-inhibitory concentration (IC50) in [7], in experiment [8], in experiment [9], in [10], in [11] and in experiment [12] was < 10 nM in each case. Moreover, the half-inhibitory concentration (IC50) in experiment [13], in [14], in [15], in experiment [16] and in experiment [17] was < 10 nM throughout.
`Cc1cc(C#N)cc(C(=O)c2cc(Cl)ccc2OCC(=O)Nc2cnc(S(N)(=O)=O)cc2C)c1` [Compound 587]: the concentration for half-maximal inhibition (IC50) in experiment [1] is < 10 nM; in experiment [2] it was < 10 nM; in experiment [3] it was 11 to 100 nM; in experiment [4], < 10 nM; in experiment [5] it was < 10 nM; in experiment [6], < 10 nM. For the same compound, the IC50 in experiment [7], in experiment [8], in [9], in [10], in [11] and in experiment [12] was < 10 nM throughout. Also, the concentration for half-maximal inhibition (IC50) in [13], in experiment [14], in experiment [15], in experiment [16] and in [17] was < 10 nM each time.
